Test results from the Deep4Chem optical property database.
Values belong to the molecule of their own block, whether it stands above or below them.

Test: solvent given as SMILES

- absorption maximum (in CC#N): 358 nm
- absorption maximum (in CCCCCC): 378 nm
- absorption maximum (in CO): 359 nm
- absorption maximum (in CS(C)=O): 361 nm
- absorption maximum (in ClC(Cl)Cl): 362 nm
Compound: CCC1=C(C)C2=Cc3ccccc3B(O)N2C1=O

- absorption maximum (in CC#N): 408.95 nm
- absorption maximum (in CCCCCC): 408.95 nm
Compound: Cc1ccc2c(c1)C(=O)c1ccncc1-2

Compound: c1cc2c([nH]c3c4[nH]c5sccc5c4c4nsnc4c23)s1
- absorption maximum (in C1CCOC1): 420 nm
- absorption maximum (in CCOC(C)=O): 414 nm
- absorption maximum (in CN(C)C=O): 423 nm
- absorption maximum (in Cc1ccccc1): 411 nm
- absorption maximum (in ClCCl): 415 nm

- absorption maximum (in ClC(Cl)Cl): 409 nm
Compound: O=C1CC(c2ccc(C(F)(F)F)cc2)c2c(c3ccccc3c3nc4ccccc4nc23)O1 (stereo not given)

- absorption maximum (in C1CCCCC1): 304 nm
Compound: CCCC1(CCC)c2ccccc2-c2ccccc21

- absorption maximum (in ClCCl): 408 nm
Compound: c1ccc(C2(c3ccccc3)c3ccc4ccc5ccccc5c4c3-c3c2ccc2ccc4ccccc4c32)cc1

- absorption maximum (in CCO): 438 nm
Compound: Cc1ccc(C(=O)OCc2ccc3c4cccc5cccc(c6cccc2c63)c54)cc1

Compound: O=C(c1ccncc1)c1ccc(-n2c3ccc(-n4c5ccccc5c5ccccc54)cc3c3cc(-n4c5ccccc5c5ccccc54)ccc32)cc1
- absorption maximum (in C1CCOC1): 341.83 nm
- absorption maximum (in Cc1ccccc1): 360.08 nm
- absorption maximum (in ClCCl): 341.83 nm

- absorption maximum (in CCO): 556 nm
Compound: CN(C)c1ccc2c(-c3ccc(Br)cc3)c3ccc(=[N+](C)C)cc-3oc2c1

- absorption maximum (in ClCCl): 391 nm
Compound: N#Cc1ccc(C2=Cc3cc4ccccc4cc3P2(=O)c2ccccc2)cc1 (stereo not given)

Compound: O=Cc1c(O)c(-c2nc3ccccc3s2)cc2ccccc12
- absorption maximum (in C1CCOC1): 352 nm
- absorption maximum (in CC#N): 349 nm
- absorption maximum (in CC(C)=O): 352 nm
- absorption maximum (in CCO): 349 nm
- absorption maximum (in CCOC(C)=O): 352 nm
- absorption maximum (in CN(C)C=O): 346 nm
- absorption maximum (in CO): 349 nm
- absorption maximum (in Cc1ccccc1): 358 nm
- absorption maximum (in ClC(Cl)Cl): 352 nm
- absorption maximum (in ClCCl): 352 nm

- absorption maximum (in CO): 621 nm
- absorption maximum (in CS(C)=O): 626 nm
Compound: CCC1=C(C)C2=Cc3c4ccccc4c4n3[B-](c3cc[n+](C)cc3)(Oc3ccccc3-4)[N+]2=C1C (stereo not given)

- absorption maximum (in ClCCl): 328 nm
Compound: COC(=O)C1=C(C(=O)OC)C2(c3ccccc3-c3c(Br)cc(Br)cc32)C2(/C=C/c3ccc(Cl)cc3)c3cc(OC)c(OC)cc3CCN12 (stereo not given)

Compound: COc1ccc(C2=C3C(C)=CC(C=Cc4ccc(C(=O)OC5C[C@H]6CCC5(C)C6(C)C)cc4)=[N+]3[B-](F)(F)n3c(C)cc(C)c32)cc1 (stereo not given in full)
- absorption maximum (in Cc1ccccc1): 568 nm

- absorption maximum (in C1CCOC1): 404 nm
Compound: Clc1cnc2nn3ccccc3c2n1

- absorption maximum (in CC#N): 555 nm
- absorption maximum (in CCO): 539 nm
- absorption maximum (in CN(C)C=O): 560 nm
- absorption maximum (in O): 554 nm
Compound: CCN(CC)c1ccc2c(-c3ccccc3C(=O)[O-])c3ccc(=[N+](CC)CC)cc-3oc2c1

- absorption maximum (in ClCCl): 528 nm
Compound: CC(C)(C)c1ccc2c(c1)c1cc(C(C)(C)C)ccc1n2-c1ccc(N(c2ccc(-c3ccc(-c4ccc(-c5ccc(-c6ccc(N(c7ccc(-n8c9ccc(C(C)(C)C)cc9c9cc(C(C)(C)C)ccc98)cc7)c7ccc(-n8c9ccc(C(C)(C)C)cc9c9cc(C(C)(C)C)ccc98)cc7)cc6)s5)c5nsnc45)s3)cc2)c2ccc(-n3c4ccc(C(C)(C)C)cc4c4cc(C(C)(C)C)ccc43)cc2)cc1

- absorption maximum (in CCO): 395 nm
- absorption maximum (in ClCCl): 397 nm
Compound: N#Cc1ncc(-c2c3ccccc3c(-c3cnc(C#N)nc3)c3ccccc23)cn1

- absorption maximum (in C1CCCCC1): 325 nm
- absorption maximum (in CO): 330 nm
Compound: Cc1ccc(/C=C(\c2ccccc2)c2nc3ccccc3o2)cc1

Compound: CCCCOC(=O)c1cc(Cl)c2c3c(Cl)cc4c5c(cc(Cl)c(c6c(Cl)cc(C(=O)OCCCC)c1c26)c53)C(=O)N(c1c(C(C)C)cccc1C(C)C)C4=O
- absorption maximum (in Cc1ccccc1): 496 nm

Compound: c1ccc(-c2nc(-c3ccccc3)nc(-c3ccc(-n4c5ccccc5c5c4c4ccccc4n5-c4ccccc4)cc3)n2)cc1
- absorption maximum (in Cc1ccccc1): 398 nm

- absorption maximum (in c1ccccc1): 406 nm
Compound: O=c1oc2ccc3ccc(O)cc3c2nc1-c1ccccc1

- absorption maximum (in ClC(Cl)Cl): 458 nm
Compound: N#CC1=CC=CC(C#N)=P1(c1ccccc1)c1ccccc1

- absorption maximum (in C1CCOC1): 513 nm
Compound: C[Si](C)(C)c1ccc(-c2ccc(-c3ccc(-c4ccc(-c5ccc([Si](C)(C)C)s5)s4)c4nsnc34)s2)s1

- absorption maximum (in CC#N): 356 nm
Compound: CC(C)Oc1ccc(C#Cc2cc3ccccc3oc2=O)cc1

Compound: N#CC(C#N)=C(c1ccc(-n2ccc3ccccc32)cc1)c1ccc(-n2ccc3ccccc32)cc1
- absorption maximum (in Cc1ccccc1): 400 nm

Compound: C(=C\c1nc2ccccc2[nH]1)/c1ccc(/C=C/c2nc3ccccc3[nH]2)cc1
- absorption maximum (in C1CCOC1): 389 nm
- absorption maximum (in CC#N): 382 nm
- absorption maximum (in CC(C)=O): 395 nm
- absorption maximum (in CN(C)C=O): 390 nm
- absorption maximum (in CO): 384 nm
- absorption maximum (in CS(C)=O): 392 nm

- absorption maximum (in C1CCCCC1): 340 nm
- absorption maximum (in CO): 340 nm
Compound: Clc1ccc(/C=C(\c2ccccc2)c2nc3ccccc3s2)cc1

- absorption maximum (in ClCCl): 518 nm
Compound: CC1=CC(C)=[N+]2C1=C(c1c(-c3ccccn3)nc3ccccn13)c1c(C)cc(C)n1[B-]2(F)F

- absorption maximum (in C1CCCCC1): 347 nm
- absorption maximum (in C1COCCO1): 350 nm
- absorption maximum (in CC#N): 348 nm
- absorption maximum (in CN(C)C=O): 353 nm
- absorption maximum (in CO): 352 nm
- absorption maximum (in O): 351 nm
- absorption maximum (in OCC(O)CO): 364 nm
- absorption maximum (in OCCO): 360 nm
Compound: O=C1NC(=O)/C(=C\c2ccccc2O)S1

- absorption maximum (in C1CCCCC1): 484 nm
- absorption maximum (in CC#N): 510 nm
- absorption maximum (in CCO): 509 nm
- absorption maximum (in c1ccccc1): 507 nm
Compound: CN(C)c1ccc2c(c1)C(=O)c1ccccc1-2

- absorption maximum (in CS(C)=O): 322.8 nm
Compound: Cc1ccc2nc(-c3cc(-c4nc5ccc(C)cc5[nH]4)cc(-c4nc5ccc(C)cc5[nH]4)c3)[nH]c2c1

Compound: C(#Cc1ccc(-n2c3ccccc3c3ccccc32)cc1)c1ccccc1
- absorption maximum (in CC#N): 324 nm
- absorption maximum (in CCCCC): 323 nm
- absorption maximum (in CO): 322 nm
- absorption maximum (in Cc1ccccc1): 329 nm
- absorption maximum (in ClC(Cl)Cl): 326 nm
- absorption maximum (in ClCCl): 326 nm

- absorption maximum (in O): 402 nm
Compound: CCNc1ccc2c(c1)C(C)(C)C(=O)C=C2

- absorption maximum (in ClC(Cl)Cl): 692 nm
Compound: CCC1=C(CC)C(C)=[N+]2C1=Cc1c(C)c3cc4c(cc3n1[B-]2(F)F)=[N+]1C(=Cc2c(CC)c(CC)c(C)n2[B-]1(F)F)C=4C

- absorption maximum (in ClC(Cl)Cl): 407 nm
Compound: CCCCCCN1C(=O)c2cccc3c(-c4ccc(OC)s4)ccc(c23)C1=O

Compound: COc1nc(Cl)nc(Nc2ccc3c4c(cccc24)C(=O)c2ccccc2-3)n1
- absorption maximum (in CC#N): 407 nm
- absorption maximum (in CC(C)=O): 410 nm
- absorption maximum (in CC(C)O): 417.01 nm
- absorption maximum (in CCOC(C)=O): 411.02 nm
- absorption maximum (in CO): 414.94 nm
- absorption maximum (in Cc1ccccc1): 419.99 nm
- absorption maximum (in Clc1ccccc1): 418.06 nm
- absorption maximum (in N#Cc1ccccc1): 415.97 nm
- absorption maximum (in O=C1CCCCC1): 414.94 nm

- absorption maximum (in C1CCCCC1): 340 nm
- absorption maximum (in CO): 345 nm
Compound: Cc1ccc(/C=C(\c2ccccc2)c2nc3ccccc3s2)cc1

Compound: O=C1C=C(Nc2ccccc2)CCC1
- absorption maximum (in C1CCCCC1): 295 nm
- absorption maximum (in C1CCOC1): 302 nm
- absorption maximum (in C1COCCO1): 302 nm
- absorption maximum (in CC1CCCCC1): 295 nm
- absorption maximum (in CC#N): 307 nm
- absorption maximum (in CC(C)O): 307 nm
- absorption maximum (in CCO): 307 nm
- absorption maximum (in CCOC(C)=O): 301 nm
- absorption maximum (in CCOCC): 296 nm
- absorption maximum (in CN(C)C=O): 306 nm
- absorption maximum (in CO): 305 nm
- absorption maximum (in CS(C)=O): 307 nm
- absorption maximum (in ClC(Cl)(Cl)Cl): 299 nm
- absorption maximum (in ClC(Cl)Cl): 303 nm
- absorption maximum (in O): 306 nm

- absorption maximum (in c1ccccc1): 410 nm
Compound: COc1ccc(-c2nc3c(ccc4ccccc43)oc2=O)cc1

- absorption maximum (in CCCCCC): 681 nm
Compound: CC(C)[Si](C#Cc1c2nc3ccccc3nc2c(C#C[Si](C(C)C)(C(C)C)C(C)C)c2nc3ccccc3nc12)(C(C)C)C(C)C

- absorption maximum (in C1CCOC1): 397 nm
Compound: CCCCCCOc1cc(C=C2c3ccccc3-c3ccccc32)c(OCCCCCC)cc1C=C1c2ccccc2C=Cc2ccccc21

- absorption maximum (in C1CCOC1): 521 nm
Compound: CCCCCCc1ccsc1-c1cc2c3cc(-c4sccc4CCCCCC)c4nc(C(F)(F)C(F)(F)C(F)(F)F)nc5c(-c6sccc6CCCCCC)cc(c6cc(-c7sccc7CCCCCC)c7nc(C(F)(F)C(F)(F)C(F)(F)F)nc1c7c26)c3c45

- absorption maximum (in C1CCOC1): 355 nm
- absorption maximum (in CC#N): 355 nm
- absorption maximum (in CCCCCC): 354 nm
Compound: COC(C)CC1=N/C(=C\c2cccc(N(C)C)c2)C(=O)N1C (stereo not given)

- absorption maximum (in ClC(Cl)Cl): 416 nm
Compound: CCCCCCN1C(=O)c2cccc3c(-c4sc(-c5ccc6c7c(cccc57)C(=O)N(CCCCCC)C6=O)c5c4OCCO5)ccc(c23)C1=O

- absorption maximum (in CC(C)O): 529 nm
- absorption maximum (in CCO): 527 nm
- absorption maximum (in CO): 522 nm
- absorption maximum (in O): 515 nm
Compound: O=C([O-])c1ccccc1-c1c2cc(Br)c(=O)c(Br)c-2oc2c(Br)c([O-])c(Br)cc12

- absorption maximum (in O): 294.99 nm
Compound: Nc1nc2c([nH]c(=O)n2[C@H]2C[C@H](O)[C@@H](CO)O2)c(=O)[nH]1

- absorption maximum (in C1CCOC1): 360 nm
Compound: CC(C)(C)c1ccc(-c2c(-c3cccc(-n4c5ccccc5c5ccccc54)c3)c(C#N)c(-c3cccc(-n4c5ccccc5c5ccccc54)c3)c(-c3ccc(C(C)(C)C)cc3)c2-c2ccc(C(C)(C)C)cc2)cc1

Compound: Cc1cc(-n2c3ccccc3c3ccccc32)ccc1-c1ccc(S(=O)(=O)c2ccccc2)cc1C
- absorption maximum (in Cc1ccccc1): 340 nm

Compound: Cc1ccc(N(c2ccc(C)cc2)c2ccc(-c3cc4c(cc(-c5ccc(N(c6ccc(C)cc6)c6ccc(C)cc6)cc5)c5nsnc54)c4nsnc34)cc2)cc1
- absorption maximum (in Cc1ccccc1): 520 nm
- absorption maximum (in ClCCl): 518 nm

- absorption maximum (in ClCCl): 507 nm
Compound: COC(=O)c1ccc(C2=C(/C=C/c3ccc(OC)cc3)O[B-](F)(F)[O+]=C2/C=C/c2ccc(OC)cc2)cc1

- absorption maximum (in ClCCl): 290 nm
Compound: O=S(=O)(c1ccc2c(c1)c1ccccc1n2-c1ccccc1)c1ccc2c(c1)c1ccccc1n2-c1ccccc1

- absorption maximum (in ClCCl): 430 nm
Compound: CCCCCCc1cc2c3c(c1)c(=C1c4ccccc4Sc4ccccc41)c1cc(CCCCCC)cc4c1N3c1c(cc(CCCCCC)cc1c4=C1c3ccccc3Sc3ccccc31)c2=C1c2ccccc2Sc2ccccc21

Compound: COc1ccc(-c2nnc(-c3cc(-c4nnc(-c5ccc(OC)cc5)o4)c(-n4c5ccccc5c5ccccc54)cc3-n3c4ccccc4c4ccccc43)o2)cc1
- absorption maximum (in Cc1ccccc1): 371 nm
